Reference: patent US11332438B2, “Creatine prodrugs, compositions and methods of use thereof” (Ultragenyx Pharmaceutical Inc., priority 2017, dated 2022)

Legend:
[1] = Liver microsome stability, human; assay type: in vitro ADME; settings: liver microsomes, read-out: Microsome Stability Human t1/2
Protocol: (§1) The stabilities of creatine prodrugs can be evaluated in one or more in vitro systems using a variety of preparations following methods known in the art. Experimental conditions useful for the in vitro studies are described in Table 1. Prodrug is added to each preparation in triplicate. […]
(§2) Protocol for Microsomal Stability:
(§3) For reference compound, a 500 μM spiking solution was prepared: add 10 μL of 10 mM DMSO stock solution into 190 μL ACN. […] For test compound, a 5 mM spiking solution was prepared: add 10 μL of 10 mM DMSO stock solution into 10 μL ACN. […] NADPH stock solution (6 mM) was prepared by dissolving NADPH into buffer 0.1 M Potassium Phosphate buffer, 1.0 mM EDTA, pH 7.4. […] For 0-min, 135 μL of ACN containing IS was added to the wells of 0-min plate and then 15 μL of NADPH stock solution (6 mM) was added. 15 μL of NADPH stock solution (6 mM) was added to the samples designated as 0-, 5-, 10-, 20-, 30-min, 60-min; 15 μL of buffer 0.1 M Potassium Phosphate buffer, 1.0 mM EDTA, pH 7.4, was added to the samples designated as 60-min without NADPH. At 5-min, 10-min, 20-min, and 30-min, 60-min 135 μL of ACN containing IS was added to the wells of corresponding plates, respectively, to stop the reaction. […] 50 μL of the supernatant from each well was transferred into a 96-well sample plate containing 50 μL of ultra pure water (Millipore, ZMQS50FOI) and analyzed by LC/MS.

[2] = Chemical stability in phosphate buffered saline (PBS); assay type: physicochemical; settings: 50 μM prodrug
Protocol: (§4) Chemical stability of creatine prodrugs in phosphate buffered saline (PBS), simulated intestinal fluid (SIF) without pancreatin, simulated gastric fluid (SGF) without pepsin were determined by LC-UV, LC-CAD, LC-UV-CAD or LC-MS/MS as appropriate. Creatine prodrugs of the present disclosure (50 μM) were incubated at 37° C. according to described protocols and prodrug levels were compared between t=0, t=15, t=60, and t=120 mins by peak area ratio to determine the percentage remained at t=120 mins (2 h).
(§5) Protocol for PBS, SIF and SGF stability for screening:
(§6) Prodrugs (50 μM) were incubated in PBS, FaSSIF (Biorelevant) or FaSSGF (Biorelevant) at 37° C.

[3] = Plasma stability, human plasma; assay type: in vitro ADME; settings: for half-life: 37 °C, read-out: Plasma Stability Human t1/2
Protocol: as §1
(§7) Protocol for plasma stability for early screen macrocycles (Method A):
(§8) Frozen plasma was thawed by placing at 37° C. quickly and centrifuged at 3,000 rpm for 8 minutes to remove clots. Then the supernatant was pipetted and pooled as the plasma to be used in the experiment. The plasma was placed on ice until used. The test compounds and reference compounds spiking solution was prepared as a 2.5 mM test compounds spiking solution A: Add 20 μL of 10 mM test compounds stock solution to 60 μL DMSO. 0.1 mM Spiking solution B was prepared: Add 40 μL of spiking solution A to 960 μL of […] Sodium phosphate buffer with 0.5% BSA. […] For 0-min, 400 μL of ACN containing IS was added to the wells of 0-min plate and then 90 μL of plasma was added. […] 50 μL of the supernatant was transferred from each well into a 96-well sample plate containing 120 μL of ultra pure water (Millipore, ZMQS50F01) and analyzed by LC/MS.
(§9) Protocol for plasma stability (Method B):
(§10) The frozen plasma was thawed in a 37° C. water bath and then, if needed, adjusted to pH=7.4 then preheated in a 37° C. incubator. The test article was dissolved in 10% DMSO/water and spiked into plasma pre-plated into 96 well plates at a final concentration of 1 μM. Discrete incubations were performed at 37° C. and included 5 time points: t=0, 2, 5, 15, and 30 min. Samples were then crashed with 4× volume, ice cold 20% water/80% acetonitrile and spun at 4000 g for 10 mins. The supernatant was dried down and reconstituted with water and analyzed by LC-MS/MS. The half life in minute was calculated.

[4] = Plasma stability, mouse plasma; assay type: in vitro ADME; settings: for half-life: 37 °C, read-out: Plasma Stability Mouse t1/2
Protocol: as §1, §7, §8, §9, §10

[5] = Chemical stability in simulated gastric fluid (SGF) without pepsin; assay type: physicochemical; settings: 50 μM prodrug
Protocol: as §4, §5, §6

[6] = Liver microsome stability, mouse; assay type: in vitro ADME; settings: liver microsomes, read-out: Microsome Stability Mouse t1/2
Protocol: as §1, §2, §3

[2H]C([2H])([2H])N(CC(=O)OC(C)(C)C(C)(C)O)C(=N)NC(=O)CCCCCCCCCC [Compound 61]
half-life at 10 μM ([1]; pH 7.4, Table 2B): < 0.0833 h | Chemical Stability PBS % T0 at 2 hours at 37 °C. ([2]; Table 2B): 106% | half-life ([3]; Table 2B): < 0.0833 h | half-life ([4]; Table 2B): < 0.0833 h | Chemical Stability SGF, no enzyme % T0 at 2 hours at 37 °C. ([5]; Table 2B): 99% | half-life at 10 μM ([6]; pH 7.4, Table 2B): < 0.0833 h

O=CO.[2H]C([2H])([2H])N1CC(=O)OCCCCCCCCCC(=O)NC1=N [Compound SS, 5-imino-4-trideuteriomethyl-1-oxa-4,6-diazacyclohexadecane-2,7-dione Formic Acid Salt]
Chemical Stability PBS % T0 at 2 hours at 37 °C. ([2]; Table 2C): 0% | half-life ([3]; Table 2C, macrocycles): > 1.5 h | Chemical Stability SGF, no enzyme % T0 at 2 hours at 37 °C. ([5]; Table 2C): 85%

[2H]C([2H])([2H])N(CC(=O)[O-])C(=N)NC(=O)CCCCCCCC.[Na+] [Compound 36]
half-life at 10 μM ([1]; pH 7.4, Table 2A): 1.7 h | Chemical Stability PBS % T0 at 2 hours at 37 °C. ([2]; Table 2A): 106% | half-life ([3]; Table 2A): > 3 h | half-life ([4]; Table 2A): > 3 h | Chemical Stability SGF, no enzyme % T0 at 2 hours at 37 °C. ([5]; Table 2A): 99% | half-life at 10 μM ([6]; pH 7.4, Table 2A): > 2.42 h

Cl.[2H]C([2H])([2H])N1CC(=O)O[C@@H](C)CCCCCCCCCC(=O)NC1=N [Compound PP, (S)-5-imino-17-methyl-4-(methyl-d3)-1-oxa-4,6-diazacycloheptadecane-2,7-dione Hydrochloride]
half-life ([3]; Table 2C, macrocycles): 0.133 h | half-life ([4]; Table 2C, macrocycles): 0.0183 h

[2H]C([2H])([2H])N(CC(=O)[O-])C(=N)NC(=O)CCCCCCCCCCCO.[Na+] [Compound 56]
half-life at 10 μM ([1]; pH 7.4, Table 2B): > 1.5 h | Chemical Stability PBS % T0 at 2 hours at 37 °C. ([2]; Table 2B): 58% | half-life ([3]; Table 2B): > 3 h | half-life ([4]; Table 2B): > 3 h | Chemical Stability SGF, no enzyme % T0 at 2 hours at 37 °C. ([5]; Table 2B): 81% | half-life at 10 μM ([6]; pH 7.4, Table 2B): > 1.5 h

[2H]C([2H])([2H])N(CC(=O)O)C(=NC(=O)OC(C)(C)C)NC(=O)CCCCCCCCCC [Compound 34]
half-life at 10 μM ([1]; pH 7.4, Table 2A): > 3 h | half-life ([3]; Table 2A): > 3 h | half-life ([4]; Table 2A): > 3 h | half-life at 10 μM ([6]; pH 7.4, Table 2A): 2.05 h

[2H]C([2H])([2H])N(CC(=O)[O-])C(=N)NC(=O)CCCCCCCC.[Li+] [Compound 35]
half-life at 10 μM ([1]; pH 7.4, Table 2A): 1.08 h | Chemical Stability PBS % T0 at 2 hours at 37 °C. ([2]; Table 2A): 116% | half-life ([3]; Table 2A): > 3 h | half-life ([4]; Table 2A): > 3 h | Chemical Stability SGF, no enzyme % T0 at 2 hours at 37 °C. ([5]; Table 2A): 86% | half-life at 10 μM ([6]; pH 7.4, Table 2A): > 2.42 h

[2H]C([2H])([2H])N(CC(=O)[O-])C(=N)NC(=O)CCCCCCCCCC.[Na+] [Compound 32]
half-life at 10 μM ([1]; pH 7.4, Table 2A): 1.83 h | half-life ([3]; Table 2A): > 3 h | half-life ([4]; Table 2A): > 3 h | half-life at 10 μM ([6]; pH 7.4, Table 2A): > 2.42 h

O=CO.[2H]C([2H])([2H])N1CC(=O)OCCCCCCCC(=O)NC1=N [Compound BB, 5-imino-4-trideuteriomethylguanidino-1-oxa-4,6-diazacyclotetradecane-2,7-dione Formate]
Plasma Stability Human t1/2 [3]: 9 min | Plasma Stability Mouse t1/2 [4]: <2 min

[2H]C([2H])([2H])N1CC(=O)OCCCCCCCCC(=O)NC1=N [Compound DD, 5-imino-4-trideuteriomethyl-1-oxa-4,6-diazacyclopentadecane-2,7-dione]
half-life ([3]; Table 2C, macrocycles): 0.138 h | half-life ([4]; Table 2C, macrocycles): < 0.0333 h

Cl.[2H]C([2H])([2H])N1CC(=O)OC(CC)CCCCCCCCCC(=O)NC1=N (centres unmarked) [Compound L, 17-ethyl-5-imino-4-trideuteriomethyl-1-oxa-4,6-diazacycloheptadecane-2,7-dione Hydrochloric Acid Salt]
half-life at 10 μM ([1]; pH 7.4, Table 2C): 0.0267 h | half-life ([3]; Table 2C, macrocycles): 0.567 h | half-life ([4]; Table 2C, macrocycles): 0.05 h | half-life at 10 μM ([6]; pH 7.4, Table 2C): 0.01 h

Cl.[2H]C([2H])([2H])N(CC(=O)OC(C)C(C)(C)C)C(=N)NC(=O)CCCCCC (centres unmarked) [Compound 53]
Chemical Stability PBS % T0 at 2 hours at 37 °C. ([2]; Table 2B): 64% | Chemical Stability SGF, no enzyme % T0 at 2 hours at 37 °C. ([5]; Table 2B): 91%
